Results reported in US8388944B2, “Inactivating organisms using carbon dioxide at or near its supercritical pressure and temperature conditions” (Novasterilis Inc., priority 2003, dated 2013).
Structures can show the parent of a compound that is named as a salt.

Assays:
[1] = system: B. subtilis spore and vegetative forms; assay: Inactivation of B. subtilis spore and vegetative forms, CFU counted after serial dilution and culturing; assay type: cell-based, Bacillus subtilis
Protocol: The reactor vessel was heated to 50° C. and equilibrated with CO2 at atmospheric pressure. The stirring and agitation mechanisms were activated and the reactor vessel pressurized to 3000 psi for 40 minutes. The CO2 pressure was then allowed to drop to 1500 psi at a rate of 300 psi/minute. Agitation was carried out for 1 minute.
The loop was sealed and pressurized to 3000 psi.
The stirring was stopped and the basket was removed from the reactor vessel.
The reactor vessel was heated to 50° C. and equilibrated with CO2 at atmospheric pressure. […] The CO2 pressure was then allowed to drop to 1500 psi at a rate of 300 psi/minute.

[2] = system: B. stearothermophilus spores; assay: Inactivation of B. stearothermophilus spores, CFU counted after serial dilution and culturing; assay type: cell-based; details: for CFU/mL after treatment: start 2.3×10^6 CFU/mL
Description: The effects of using an additive in accordance with the present invention was compared using the process described by U.S. Pat. No. 6,149,864 to Dillow et al. for inactivating B. stearothermophilus spores. […] In contrast, 6.4-log inactivation (i.e., 2.3×10^6 CFU/mL to undetectable) was achieved using the process of the present invention (i.e., 1100 psi to 3000 psi with random and directional agitation, and including TFA as the chemical additive). The chemical additive was placed on a cotton ball and inserted in the chamber prior to closure. No further chemical additive was used.
The apparatus generally depicted in FIG. 1 was employed. A sample of B. stearothermophilus spores (1 mL) of greater than 10^6 CFU/mL was placed in 16 mm diameter test tubes in a stainless steel basket. Trifluoroacetic acid (4 mL) was transferred by syringe onto the surface of a cotton ball placed in the basket and water (6 mL) was placed at bottom of vessel. The basket was then loaded into the 600 mL reactor vessel. The reactor vessel was heated to 50° C. and equilibrated with CO2 at atmospheric pressure. The stirring and agitation mechanisms were activated and the reactor vessel pressurized to […] for 40 minutes. The CO2 pressure was then allowed to drop to 1100 psi at a rate of 300 psi/minute. Agitation by means of vibration of the vessel was carried out for 1 minute.
The pressurization/stirring/agitation/depressurization process was repeated a total of three times. After the third cycle, a series of three flushing cycles to remove the additive was performed by pressurizing and partial depressurizing the reactor vessel using CO2. The stirring was stopped and the basket was removed from the reactor vessel. Any remaining CFU were counted after serial dilution and culturing of both treated and untreated controls.

Escherichia coli = assay: Inactivation of bacteria by supercritical carbon dioxide; assay type: cell-based; details: 34° C., 2973 psi to 1500 psi, three cycles over 0.5 hours
Description: (§1) Maintaining the natural presentation environment for a given antigen generally enhances the protective qualities of a given vaccine. Ghost vaccine preparations result in empty bacterial shells that are intact except for holes produced by the lysis gene product when viewed by scanning electron microscopy (SEM). In contrast, organisms inactivated by supercritical carbon dioxide have intact cell walls (i.e., no lysis holes) and are not empty (i.e., the cytosolic contents are retained). Staphylococcus aureus and Pseudomonas aeruginosa were inactivated by at least 6-log with supercritical carbon dioxide at 40° C. and 2973 psi to 1500 psi for a total of six cycles over 4 hours. Escherichia coli was inactivated by at least 6-log with supercritical carbon dioxide at 34° C. and 2973 psi to 1500 psi for a total of three cycles over 0.5 hours.

Staphylococcus aureus = assay: as above; assay type: cell-based; details: 40° C., 2973 psi to 1500 psi, six cycles over 4 hours
Description: as §1

Pseudomonas aeruginosa = assay: as above; assay type: cell-based; details: 40° C., 2973 psi to 1500 psi, six cycles over 4 hours
Description: as §1

Salmonella typhimurium = assay: Inactivation of S. typhimurium, serial dilutions and colony counts; assay type: cell-based; details: Example 8: no chemical additive, water 1 vol. %, 35° C., 1500 psi constant for 15 minutes, greater than 10^9 CFU/mL
Protocol: A sample of Salmonella typhimurium (5 mL), […], of greater than 10^9 CFU/mL was placed into 16 mm test tubes in a stainless steel basket. Water was added on a cotton ball to the vessel at 1% of the total volume (1 vol. %) of the vessel. No chemical additive was placed in the vessel. The reactor vessel was heated to 35° C. and equilibrated with CO2 at atmospheric pressure. The stirring and agitation mechanisms were activated and vessel pressurized to 1500 psi and held constant for 15 minutes. The vessel was then depressurized and the contents removed for analysis. Quantitative analysis of any remaining Salmonella typhimurium in treated sample vs. untreated control was enumerated though serial dilutions and colony counts.

B. subtilis spore forms = details: process disclosed in the Dillow '864 patent, other investigators [27]; cited from earlier work

## CC(=O)O [Acetic acid, acetic acid]
[1]; Example 3B: as Example 3A, samples of less than 10^6 CFU/ml
  kill of B. subtilis present: total kill
[1]; Example 3B: extrapolated from total kill of samples below 10^6 CFU/ml
  log reduction in CFU extrapolated for greater than 10^6 CFU/ml: 6 log
[1]; Example 7: acetic acid 6 mL then 4 mL per cycle in CO2, 50° C., 3000 psi 40 minutes to 1500 psi, three cycles
  log reduction: at least 6 log

## O=C(O)C(F)(F)F [TFA, trifluoroacetic acid]
[2]; TFA as chemical additive in supercritical CO2, 1100 psi to 3000 psi, random and directional agitation
  log inactivation: 6.4 log
[2]; TFA as chemical additive in supercritical CO2, 1100 psi to 3000 psi
  CFU/mL after treatment: undetectable

## O=C=O [supercritical carbon dioxide, carbon dioxide]
Escherichia coli
  log inactivation: at least 6 log
Staphylococcus aureus
  log inactivation: at least 6 log
Pseudomonas aeruginosa
  log inactivation: at least 6 log
Salmonella typhimurium
  log reduction: 9 log
B. subtilis spore forms
  log reduction in B. subtilis spore forms: 3.5 log
[2]; no chemical additive, Dillow '864 conditions, three cycles of 60° C. for two hours, 1500 psi to 3000 psi, random agitation
  log inactivation: 1.0 log
[2]; no chemical additive, three cycles of 60° C. for two hours, 1500 psi to 3000 psi
  CFU/mL after treatment: 2.1×10^5 CFU/mL
